Laboratory results from patent US20260355213A1, “TREATMENT OF INFECTIONS CAUSED BY INTRACELLULAR PATHOGENS” (Sheba Impact Ltd., priority 2023, published 2026).

Legend:
caspase 3 = assay: Caspase 3 activity in HeLa cells (Multiplex Activity Fluorometric Assay Kit); format: cell-based, human; settings: HeLa cells infected with S. Typhimurium
Description: (§1) One of the possible mechanisms that could explain the activity of the compounds in inhibiting infection by different pathogens is inducing programed cell death in infected cells. To examine this experimentally, the present inventors have used Caspase-3, Caspase-8 and Caspase-9 Multiplex Activity Fluorometric Assay Kit (ab219915) to monitor caspase 3, caspase 8 and caspase 9 activity in HeLa cells infected with S. Typhimurium in the presence and absence of the compounds.

[1] = tested on: Listeria monocytogenes in HeLa cells; assay: Intracellular Listeria monocytogenes infection of HeLa cells (CFU at 6 h p.i.); format: cell-based; settings: 10 μM
Procedure: 4×10^5 HeLa cells were seeded in a 24-well tissue culture treated plate and incubated for 24 h at 37 °C under 5% CO2 atmosphere. On the next day, cells were incubated for 3 h with fresh DMEM supplemented with the PCM-0094889, PCM-0086166, PCM-0004846, PCM-0103431, PCM-0095494, PCM-0095293, PCM-0001349, and PCM-0095564 compounds at a final concentration of 10 μM. overnight cultures of Listeria monocytogenes that were grown statically at 37 °C were washed and resuspended in PBS. Cell infection at am MOI of 1:50 was conducted by adding 20 μl of Listeria suspension to each well, following by incubation at 37 °C under 5% CO2 atmosphere. 30 min p.i. the cells were washed with PBS and the medium was replaced with fresh medium supplemented with 10 μM of the tested compounds. One h p.i., gentamycin was added to each well at a final concentration of 50 μg/ml. At 6 h p.i., the cells were washed with PBS and lysed with 250 μl DDW at room temperature. The cell lysates were then diluted in PBS and plated on LB plates for CFU count. Intracellular Listeria infection was calculated as the number of intracellular bacteria recovered at 6 h p.i., divided by the infecting inoculum (CFUs). Listeria infection in the presence of the compounds is shown relative to the number of intracellular bacteria that were recovered from cells that were not treated with the compounds. The charts show the mean and standard error of the mean (SEM) of six biological repeats in two independent experiments, biological repeats.

caspase 8 = assay: Caspase 8 activity in HeLa cells (Multiplex Activity Fluorometric Assay Kit); format: cell-based, human; settings: HeLa cells infected with S. Typhimurium
Description: as §1

SMILES | caspase 3 activity in infected cells (caspase 3) | inhibition of Listeria monocytogenes infection of HeLa cells [1] | Caspase 8 activity in infected HeLa cells (caspase 8)
CCc1cc2c(cc1CC)CC(NC[C@@H](O)c1ccc(O)c3[nH]c(=O)ccc13)C2 [Compound 8] | significantly higher activity | able to actively inhibit | –
Cc1nc2c([nH]1)CCN(C(=O)c1ccc(NC(=O)c3ccccc3-c3ccccc3)cc1)c1ccccc1-2 [Compound 6] | significantly higher activity | – | –
O=C(Nc1ccno1)Nc1ccc(Cl)cc1Cl [Compound 7] | significantly higher activity | able to actively inhibit | significantly higher activity
Cc1cc(Nc2ncnc3ccc(-c4ccc(CNCCS(C)(=O)=O)o4)cc23)ccc1Oc1ccn2ncnc2c1 [Compound 5] | significantly higher activity | able to actively inhibit | significantly higher activity
COc1ccccc1C1(CCNCc2ccc(N(C)C)cc2)CCOC(C)(C)C1 (stereo not shown) [Compound 4] | significantly higher activity | able to actively inhibit | –
CN1CCN(CCOc2cc(OC3CCOCC3)c3c(Nc4c(Cl)ccc5c4OCO5)ncnc3c2)CC1 [Compound 1] | – | able to actively inhibit | –
CC(C)(C)NCC(O)COc1ccccc1C1CCCC1 (stereo not shown) [Compound 2] | significantly higher activity | – | –
